Earlier results as cited in US20050079136A1, “Aerosol formulations of delta tetrahydrocannabinol” (priority 2001, published 2005).

Tested on: children with cancer

In the case of CCCCCc1cc(O)c2c(c1)OC(C)(C)[C@@H]1CC=C(C)C[C@@H]21 [Δ^8 THC, Δ^8 Tetrahydrocannabinol], the incidence of nausea is listed as “greatly reduced” and the side effects is listed as “no significant side effects”.
